The numbers were not newly measured in patent US20010033859A1, “Transdermal therapeutic system for delivery of dofetilide” (priority 2000, published 2001), which cites them from elsewhere.

Each structure is given as a SMILES string.

For the data set the following is noted: stated as a property of the drug substance; solvent system not given.

For `CN(CCOc1ccc(NS(C)(=O)=O)cc1)CCc1ccc(NS(C)(=O)=O)cc1` [dofetilide, N-[4-[2-[methyl[2-[4-[(methylsulfonyl)amino]phenoxy]ethyl]amino]ethyl]phenyl]-methanesulfonamide], the partition coefficient result is reported as “about 1”.
